Assay results reported in patent US20040157738A1, “Novel oxygen containing fused cyclic derivatives and herbicidal, desiccant and defoliate compositions containing them” (ISHIHARA SANGYO KAISHA, LTD., priority 2003, published 2004).

Tests used:
Type in all cases: in vivo
[1] = system: corn (Zea mays L.): ZEAMX; assay: Test Example 1: pre-emergence herbicidal activity (growth controlling degree); details: 20th to 21st day after application
Source text: (§1) Upland field soil was put into a 1/170,000 ha pot, and seeds of various plants [1. barnyardgrass (Echinochloa crus-galli L.): ECHCC, 2. crabgrass (Digitaria sanguinalis L.): DIGSA, 3. green foxtail (Setaria viridis L.): SETVI, 4. redroot pigweed (Amaranthus retroflexus L.): AMARE, 5. prickly sida (Sida spinosa L.): SIDSP, 6. velvetleaf (Abutilon theophrasti): ABUTH, 7. common cocklebur (Xanthium strumarium L.): XANST, 8. rice (Oryza sativa L.): ORYSA, 9. wheat (Triticum aestivum L.): TRZAX, 10. corn (Zea mays L.): ZEAMX, 11. soybean (Glycine max Merr.): GLXMA] were sown. Then, one day after the sowing, a wettable powder or emulsifiable concentrate having the compound of the present invention formulated in accordance with a usual formulation method, was weighed so that the active ingredient would be a predetermined amount, and diluted with water in an amount of 500 L/ha. The herbicide adjusted was applied by a small size sprayer for pre-emergence treatment. On the 20th to 21st day after the application of the herbicide, the growth of the respective plants was visually observed, and the herbicidal effects were evaluated by growth controlling degrees (%) ranging from 0 (equivalent to the untreated control) to 100 (complete kill), whereby the results shown in Table 11, were obtained. Compound Nos. in Table 11 correspond to Compound Nos. in Table 1 to 7 given hereinbefore.

[2] = system: velvetleaf (Abutilon theophrasti): ABUTH; assay: as above; details: 20th to 21st day after application
Source text: as §1

[3] = system: soybean (Glycine max Merr.): GLXMA; assay: as above; details: 20th to 21st day after application
Source text: as §1

[4] = system: barnyardgrass (Echinochloa crus-galli L.): ECHCC; assay: as above; details: 20th to 21st day after application
Source text: as §1

[5] = system: crabgrass (Digitaria sanguinalis L.): DIGSA; assay: as above; details: 20th to 21st day after application
Source text: as §1

[6] = system: prickly sida (Sida spinosa L.): SIDSP; assay: as above; details: 20th to 21st day after application
Source text: as §1

[7] = system: green foxtail (Setaria viridis L.): SETVI; assay: as above; details: 20th to 21st day after application
Source text: as §1

[8] = system: redroot pigweed (Amaranthus retroflexus L.): AMARE; assay: as above; details: 20th to 21st day after application
Source text: as §1

[9] = system: rice (Oryza sativa L.): ORYSA; assay: as above; details: 20th to 21st day after application
Source text: as §1

[10] = system: common cocklebur (Xanthium strumarium L.): XANST; assay: as above; details: 20th to 21st day after application
Source text: as §1

[11] = system: green foxtail (Setaria viridis L.), SETVI; assay: Test Example 2: post-emergence (foliage treatment) herbicidal activity (growth controlling degree); details: 1.7-2.5 leaf stage
Source text: (§2) Upland field soil was put into a 1/170,000 ha pot, and seeds of various plants were sown. Then, when the plants reached predetermined leaf stages [I. barnyardgrass (Echinochloa crus-galli L.), ECHCG: 1.8-2.4 leaf stage, 2. crabgrass (Digitaria sanguinalis L.), DIGSA: 1.5-2.2 leaf stage, 3. green foxtail (Setaria viridis L.), SETVI: 1.7-2.5 leaf stage, 4. redroot pigweed (Amaranthus retroflexus L.), AMARE: 0.1-0.3 leaf stage, 5. prickly sida (Sida spinosa L.), SIDSP: 0.3-0.5 leaf stage, 6. velvetleaf (Abutilon theophrasti), ABUTH: 0.3-0.4 leaf stage, 7. common cocklebur (Xanthium strumarium L.), XANST: 0.2-0.6 leaf stage, 8. rice (Oryza sativa L.), ORYSA: 1.6-2.2 leaf stage, 9. wheat (Triticum aestivum L.), TRZAX: 2.8 leaf stage, 10. corn (Zea mays L.), ZEAMX: 2.2-2.5 leaf stage, 11. soybean (Glycine max Merr.), GLXMA: 0.2-0.3 leaf stage], a wettable powder or emulsifiable concentrate having the compound of the present invention formulated in accordance with a usual formulation method, was weighed so that the active ingredient would be a predetermined amount, and diluted with water in an amount of 500 L/ha. To the diluted solution, 0.1%(v/v) of an agricultural spreader was added. The herbicide adjusted was applied by a small size sprayer for foliage treatment. On the […] day after the application of the herbicide, the growth of the respective plants was visually observed, and the herbicidal effects were evaluated by growth controlling degrees (%) ranging from 0 (equivalent to the untreated control) to 100 (complete kill), whereby the results shown in Table 12, were obtained. Compound Nos. in Table 12 correspond to Compound Nos. in Table 1 to 7 given hereinbefore.

[12] = system: crabgrass (Digitaria sanguinalis L.), DIGSA; assay: as above; details: 1.5-2.2 leaf stage
Source text: as §2

[13] = system: rice (Oryza sativa L.), ORYSA; assay: as above; details: 1.6-2.2 leaf stage
Source text: as §2

[14] = system: velvetleaf (Abutilon theophrasti), ABUTH; assay: as above; details: 0.3-0.4 leaf stage
Source text: as §2

[15] = system: common cocklebur (Xanthium strumarium L.), XANST; assay: as above; details: 0.2-0.6 leaf stage
Source text: as §2

[16] = system: soybean (Glycine max Merr.), GLXMA; assay: as above; details: 0.2-0.3 leaf stage
Source text: as §2

[17] = system: redroot pigweed (Amaranthus retroflexus L.), AMARE; assay: as above; details: 0.1-0.3 leaf stage
Source text: as §2

[18] = system: prickly sida (Sida spinosa L.), SIDSP; assay: as above; details: 0.3-0.5 leaf stage
Source text: as §2

[19] = system: corn (Zea mays L.), ZEAMX; assay: as above; details: 2.2-2.5 leaf stage
Source text: as §2

[20] = system: barnyardgrass (Echinochloa crus-galli L.), ECHCG; assay: as above; details: 1.8-2.4 leaf stage
Source text: as §2

SMILES	growth controlling degree, ZEAMX ([1]; 125 g a.i./ha) [%]	growth controlling degree, ABUTH ([2]; 125 g a.i./ha) [%]	growth controlling degree, GLXMA ([3]; 125 g a.i./ha) [%]	growth controlling degree, ECHCG ([4]; 125 g a.i./ha) [%]	growth controlling degree, DIGSP ([5]; 125 g a.i./ha) [%]	growth controlling degree, SIDSP ([6]; 125 g a.i./ha) [%]	growth controlling degree, SETVI ([7]; 125 g a.i./ha) [%]	growth controlling degree, AMARE ([8]; 125 g a.i./ha) [%]	growth controlling degree, ORYSA ([9]; 125 g a.i./ha) [%]	growth controlling degree, XANST ([10]; 125 g a.i./ha) [%]	growth controlling degree, SETVI ([11]; 31 g a.i./ha) [%]	growth controlling degree, DIGSP ([12]; 31 g a.i./ha) [%]	growth controlling degree, ORYSA ([13]; 31 g a.i./ha) [%]	growth controlling degree, ABUTH ([14]; 31 g a.i./ha) [%]	growth controlling degree, XANST ([15]; 31 g a.i./ha) [%]	growth controlling degree, GLXMA ([16]; 31 g a.i./ha) [%]	growth controlling degree, AMARE ([17]; 31 g a.i./ha) [%]	growth controlling degree, SIDSP ([18]; 31 g a.i./ha) [%]	growth controlling degree, ZEAMX ([19]; 31 g a.i./ha) [%]	growth controlling degree, ECHCG ([20]; 31 g a.i./ha) [%]	other results
Cn1nc(-c2c(F)cc(Cl)c3c2CCCO3)c(Cl)c1C(F)(F)F [Compound 1-2, 4-chloro-3-(8-chloro-6-fluoro-3,4-dihydro-2H-1-benzopyran-5-yl)-1-methyl-5-(trifluoromethyl)-1H-pyrazole]	10	100	10	100	100	100	100	100	20	100											pest or weed control at 63 g/ha ([11]; Setaria viridis, 504 h, 63 g a.i./ha): 70%; pest or weed control at 63 g/ha ([12]; Digitaria sanguinalis, 504 h, 63 g a.i./ha, read-out: growth controlling degree, DIGSP): 60%; plant injury at 63 g/ha ([13]; Oryza sativa, 504 h, 63 g a.i./ha): 50%; pest or weed control at 63 g/ha ([14]; Abutilon theophrasti, 504 h, 63 g a.i./ha): 100%; pest or weed control at 63 g/ha ([15]; Xanthium strumarium, 504 h, 63 g a.i./ha): 100%; pest or weed control at 63 g/ha ([16]; Glycine max, 504 h, 63 g a.i./ha): 60%; growth controlling degree, AMARE ([17]; 63 g a.i./ha): 100%; pest or weed control at 63 g/ha ([18]; Sida spinosa, 504 h, 63 g a.i./ha): 98%; plant injury at 63 g/ha ([19]; Zea mays, 504 h, 63 g a.i./ha): 60%; pest or weed control at 63 g/ha ([20]; Echinochloa crus-galli, 504 h, 63 g a.i./ha): 98%
CCCCCC1CCc2c(c(Cl)cc(F)c2-c2nn(C)c(OC(F)F)c2Cl)O1 (centres unmarked) [Compound 1-101]	40	60	10	80	100	80	100	100	30	30	100	100	60	100	100	70	100	100	70	100	
CC1CCc2c(c(Cl)cc(F)c2-c2nn3c(c2Cl)CCCC3)O1 (centres unmarked) [Compound 1-85]											80	40	40	100	100	50	70	95	50	70	growth controlling degree, ZEAMX ([1]; 250 g a.i./ha): 10%; growth controlling degree, ABUTH ([2]; 250 g a.i./ha): 30%; growth controlling degree, GLXMA ([3]; 250 g a.i./ha): 0%; growth controlling degree, ECHCG ([4]; 250 g a.i./ha): 60%; growth controlling degree, DIGSP ([5]; 250 g a.i./ha): 60%; growth controlling degree, SIDSP ([6]; 250 g a.i./ha): 20%; growth controlling degree, SETVI ([7]; 250 g a.i./ha): 80%; growth controlling degree, AMARE ([8]; 250 g a.i./ha): 95%; growth controlling degree, ORYSA ([9]; 250 g a.i./ha): 10%; growth controlling degree, XANST ([10]; 250 g a.i./ha): 0%
CC1CCc2c(c(Cl)cc(F)c2-c2nn(C)c(OC(F)F)c2Cl)O1 (centres unmarked) [Compound 1-39]																	100				growth controlling degree, ZEAMX ([1]; 250 g a.i./ha): 70%; growth controlling degree, ABUTH ([2]; 250 g a.i./ha): 100%; growth controlling degree, GLXMA ([3]; 250 g a.i./ha): 30%; growth controlling degree, ECHCG ([4]; 250 g a.i./ha): 100%; growth controlling degree, DIGSP ([5]; 250 g a.i./ha): 100%; growth controlling degree, SIDSP ([6]; 250 g a.i./ha): 100%; growth controlling degree, SETVI ([7]; 250 g a.i./ha): 100%; growth controlling degree, AMARE ([8]; 250 g a.i./ha): 100%; growth controlling degree, ORYSA ([9]; 250 g a.i./ha): 50%; growth controlling degree, XANST ([10]; 250 g a.i./ha): 100%; pest or weed control at 31 g/ha ([11]; Setaria viridis, 504 h, 31 g a.i./ha): 100%; pest or weed control at 31 g/ha ([12]; Digitaria sanguinalis, 504 h, 31 g a.i./ha, read-out: growth controlling degree, DIGSP): 100%; plant injury at 31 g/ha ([13]; Oryza sativa, 504 h, 31 g a.i./ha): 98%; pest or weed control at 31 g/ha ([14]; Abutilon theophrasti, 504 h, 31 g a.i./ha): 100%; pest or weed control at 31 g/ha ([15]; Xanthium strumarium, 504 h, 31 g a.i./ha): 100%; pest or weed control at 31 g/ha ([16]; Glycine max, 504 h, 31 g a.i./ha): 100%; pest or weed control at 31 g/ha ([18]; Sida spinosa, 504 h, 31 g a.i./ha): 100%; plant injury at 31 g/ha ([19]; Zea mays, 504 h, 31 g a.i./ha): 98%; pest or weed control at 31 g/ha ([20]; Echinochloa crus-galli, 504 h, 31 g a.i./ha): 100%
